In patent publication US8048825B2, “Haloalkylsulfonanilide derivatives or salt thereof, herbicide comprising the derivatives as active ingredient, and use of the herbicide” (Nihon Nohyaku Co., Ltd., priority 2006, dated 2011):

How the values were obtained:
Type in all cases: in vivo
Lindernia procumbens [1] = experiment: Herbicidal efficacy on paddy field weeds of pre-emergence stage (Pre), Test Example 1; settings: 1000 g/ha as active ingredient, examined after 21 days
How it was run: (§1)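 Pre-emergence paddy test: 1000 g/ha active ingredient, formulated and water-diluted, dropped onto 5 cm floodwater one day after sowing both weeds in clay loam. After 21 days in greenhouse, inhibition relative to untreated control rated on 0 (0%) to 5 (100%) scale.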

Scirpus juncoides [2] = experiment: as above; settings: 1000 g/ha as active ingredient, examined after 21 days
How it was run: as §1

Lindernia procumbens [3] = experiment: Herbicidal effect on paddy field weeds of post-emergence stage (Post), Test Example 2; settings: one-leaf stage, 1000 g/ha as active ingredient, examined after 21 days
How it was run: (§2)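 Post-emergence paddy test: formulated compound added to 5 cm standing water at 1000 g/ha a.i. when weeds reached one-leaf stage in clay loam pots in greenhouse. Growth inhibition rated 21 days later versus untreated control on a 0 (0%) to 5 (100%) scale.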

Scirpus juncoides [4] = experiment: as above; settings: one-leaf stage, 1000 g/ha as active ingredient, examined after 21 days
How it was run: as §2

Echinochloa crus-galli = experiment: as above; settings: one-leaf stage, 1000 g/ha as active ingredient, examined after 21 days
How it was run: as §2

SMILES | Lindernia procumbens pre (herbicidal effect) (Lindernia procumbens [1]) | Scirpus juncoides pre (herbicidal effect) (Scirpus juncoides [2]) | Lindernia procumbens post (herbicidal effect) (Lindernia procumbens [3]) | Scirpus juncoides post (herbicidal effect) (Scirpus juncoides [4]) | Echinochloa crus-galli post (herbicidal effect) (Echinochloa crus-galli)
CCOC(=O)N(c1ccccc1CN1CCC(C)(C(C)(C)C)OC1=O)S(=O)(=O)C(F)(F)F (centres unmarked) [Compound 1-329] | 5 (100% herbicidal effect, phytotoxicity) | 5 (100% herbicidal effect, phytotoxicity) | 5 (100% herbicidal effect, phytotoxicity) | 4 (90%-99% herbicidal effect, phytotoxicity) | 4 (90%-99% herbicidal effect, phytotoxicity)
CC(C)COC(=O)N(c1ccccc1CN1CCC(C)(C(C)(C)C)OC1=O)S(=O)(=O)C(F)(F)F (centres unmarked) [Compound 1-332] | 5 (100% herbicidal effect, phytotoxicity) | 5 (100% herbicidal effect, phytotoxicity) | 5 (100% herbicidal effect, phytotoxicity) | 4 (90%-99% herbicidal effect, phytotoxicity) | 4 (90%-99% herbicidal effect, phytotoxicity)
COC(=O)N(c1ccccc1CN1CCC(C(F)(F)F)(C(F)(F)F)OC1=O)S(=O)(=O)C(F)(F)F [Compound 1-339] | 5 (100% herbicidal effect, phytotoxicity) | 4 (90%-99% herbicidal effect, phytotoxicity) | 5 (100% herbicidal effect, phytotoxicity) | 4 (90%-99% herbicidal effect, phytotoxicity) | 4 (90%-99% herbicidal effect, phytotoxicity)
CC(C)COC(=O)N(c1ccccc1CN1CCC(C(F)(F)F)(C(F)(F)F)OC1=O)S(=O)(=O)C(F)(F)F [Compound 1-343] | 5 (100% herbicidal effect, phytotoxicity) | 5 (100% herbicidal effect, phytotoxicity) | 5 (100% herbicidal effect, phytotoxicity) | 4 (90%-99% herbicidal effect, phytotoxicity) | 4 (90%-99% herbicidal effect, phytotoxicity)
COC(=O)N(c1ccccc1CN1CCC(c2c(C)cccc2C)OC1=O)S(=O)(=O)C(F)(F)F (centres unmarked) [Compound 1-361] | 5 (100% herbicidal effect, phytotoxicity) | 5 (100% herbicidal effect, phytotoxicity) | 5 (100% herbicidal effect, phytotoxicity) | 4 (90%-99% herbicidal effect, phytotoxicity) | 4 (90%-99% herbicidal effect, phytotoxicity)
CCOC(=O)N(c1ccccc1CN1CCC(c2c(C)cccc2C)OC1=O)S(=O)(=O)C(F)(F)F (centres unmarked) [Compound 1-362] | 5 (100% herbicidal effect, phytotoxicity) | 4 (90%-99% herbicidal effect, phytotoxicity) | 5 (100% herbicidal effect, phytotoxicity) | 4 (90%-99% herbicidal effect, phytotoxicity) | 4 (90%-99% herbicidal effect, phytotoxicity)
CC1(C2(C)CCN(Cc3ccccc3NS(=O)(=O)C(F)(F)F)C(=O)O2)CC1 (centres unmarked) [Compound 1-371] | 5 (100% herbicidal effect, phytotoxicity) | 5 (100% herbicidal effect, phytotoxicity) | 5 (100% herbicidal effect, phytotoxicity) | 4 (90%-99% herbicidal effect, phytotoxicity) | 4 (90%-99% herbicidal effect, phytotoxicity)
CCOC(=O)N(c1ccccc1CN1CCC(C)(C2(C)CC2)OC1=O)S(=O)(=O)C(F)(F)F (centres unmarked) [Compound 1-373] | 5 (100% herbicidal effect, phytotoxicity) | 5 (100% herbicidal effect, phytotoxicity) | 5 (100% herbicidal effect, phytotoxicity) | 4 (90%-99% herbicidal effect, phytotoxicity) | 4 (90%-99% herbicidal effect, phytotoxicity)
CC(C)COC(=O)N(c1ccccc1CN1CCC(C)(C2(C)CC2)OC1=O)S(=O)(=O)C(F)(F)F (centres unmarked) [Compound 1-376] | 5 (100% herbicidal effect, phytotoxicity) | 5 (100% herbicidal effect, phytotoxicity) | 5 (100% herbicidal effect, phytotoxicity) | 4 (90%-99% herbicidal effect, phytotoxicity) | 4 (90%-99% herbicidal effect, phytotoxicity)
CC1(C2CCC2)CCN(Cc2ccccc2NS(=O)(=O)C(F)(F)F)C(=O)O1 (centres unmarked) [Compound 1-382] | 5 (100% herbicidal effect, phytotoxicity) | 5 (100% herbicidal effect, phytotoxicity) | 5 (100% herbicidal effect, phytotoxicity) | 4 (90%-99% herbicidal effect, phytotoxicity) | 4 (90%-99% herbicidal effect, phytotoxicity)
CCOC(=O)N(c1ccccc1CN1CCC(C)(C2CCC2)OC1=O)S(=O)(=O)C(F)(F)F (centres unmarked) [Compound 1-384] | 5 (100% herbicidal effect, phytotoxicity) | 5 (100% herbicidal effect, phytotoxicity) | 5 (100% herbicidal effect, phytotoxicity) | 4 (90%-99% herbicidal effect, phytotoxicity) | 4 (90%-99% herbicidal effect, phytotoxicity)
CC(C)COC(=O)N(c1ccccc1CN1CCC(C)(C2CCC2)OC1=O)S(=O)(=O)C(F)(F)F (centres unmarked) [Compound 1-387] | 5 (100% herbicidal effect, phytotoxicity) | 5 (100% herbicidal effect, phytotoxicity) | 5 (100% herbicidal effect, phytotoxicity) | 5 (100% herbicidal effect, phytotoxicity) | 5 (100% herbicidal effect, phytotoxicity)
CC(C)(C)COC(=O)N(c1ccccc1CN1CCC(C)(C2CCC2)OC1=O)S(=O)(=O)C(F)(F)F (centres unmarked) [Compound 1-388] | 5 (100% herbicidal effect, phytotoxicity) | 5 (100% herbicidal effect, phytotoxicity) | 5 (100% herbicidal effect, phytotoxicity) | 4 (90%-99% herbicidal effect, phytotoxicity) | 5 (100% herbicidal effect, phytotoxicity)
COC(=O)N(c1ccccc1CN1CCC(C)(c2ccccc2C(F)(F)F)OC1=O)S(=O)(=O)C(F)(F)F (centres unmarked) [Compound 1-394] | 5 (100% herbicidal effect, phytotoxicity) | 5 (100% herbicidal effect, phytotoxicity) | 5 (100% herbicidal effect, phytotoxicity) | 4 (90%-99% herbicidal effect, phytotoxicity) | 4 (90%-99% herbicidal effect, phytotoxicity)
CCOC(=O)N(c1ccccc1CN1CCC(C)(c2ccccc2C(F)(F)F)OC1=O)S(=O)(=O)C(F)(F)F (centres unmarked) [Compound 1-395] | 5 (100% herbicidal effect, phytotoxicity) | 5 (100% herbicidal effect, phytotoxicity) | 5 (100% herbicidal effect, phytotoxicity) | 4 (90%-99% herbicidal effect, phytotoxicity) | 4 (90%-99% herbicidal effect, phytotoxicity)
CCOC(=O)N(c1ccccc1CN1CCC(C)(c2ccccc2C)OC1=O)S(=O)(=O)C(F)(F)F (centres unmarked) [Compound 1-406] | 5 (100% herbicidal effect, phytotoxicity) | 5 (100% herbicidal effect, phytotoxicity) | 5 (100% herbicidal effect, phytotoxicity) | 4 (90%-99% herbicidal effect, phytotoxicity) | 5 (100% herbicidal effect, phytotoxicity)
CCC1(C(F)(F)F)CCN(Cc2ccccc2N(C(=O)OCCCl)S(=O)(=O)C(F)(F)F)C(=O)O1 (centres unmarked) [Compound 1-415] | 5 (100% herbicidal effect, phytotoxicity) | 5 (100% herbicidal effect, phytotoxicity) | 5 (100% herbicidal effect, phytotoxicity) | 4 (90%-99% herbicidal effect, phytotoxicity) | 5 (100% herbicidal effect, phytotoxicity)
CCC1(CC(C)C)CCN(Cc2ccccc2NS(=O)(=O)C(F)(F)F)C(=O)O1 (centres unmarked) [Compound 1-417] | 5 (100% herbicidal effect, phytotoxicity) | 5 (100% herbicidal effect, phytotoxicity) | 5 (100% herbicidal effect, phytotoxicity) | 4 (90%-99% herbicidal effect, phytotoxicity) | 4 (90%-99% herbicidal effect, phytotoxicity)
CC1(C)CCN(Cc2ccccc2N(C(=O)Oc2ccccc2)S(=O)(=O)C(F)(F)F)C(=O)O1 [Compound 1-506] | 5 (100% herbicidal effect, phytotoxicity) | 5 (100% herbicidal effect, phytotoxicity) | 5 (100% herbicidal effect, phytotoxicity) | 4 (90%-99% herbicidal effect, phytotoxicity) | 4 (90%-99% herbicidal effect, phytotoxicity)
